*1 amine or outer side, *2 acyl side, *3 side chain or, on linkers, in order; H or OH if unused. Where a SMILES comes first, the peptide text is derived from it. Bridges are numbered along the chain shown (N, C = ends). [ ]: non-standard residue; d: D form. The star is where a group is joined. ξ: configuration not given here. Phe(4-COOH) = N[C@@H](Cc1ccc(C(=O)O)cc1)C(=O)O; Bip = N[C@@H](Cc1ccc(-c2ccccc2)cc1)C(=O)O; Phe(3-Me) = Cc1cccc(C[C@H](N)C(=O)O)c1; NMeAEEA = CN(CCOCCOCC(=O)[*:2])[*:1]; X14 = O=C([C@H](CCCCO)N[*:1])[*:2]; 4Pal = N[C@@H](Cc1ccncc1)C(=O)O; Aad = N[C@@H](CCCC(=O)O)C(=O)O; Cha = N[C@@H](CC1CCCCC1)C(=O)O; Cit = NC(=O)NCCC[C@H](N)C(=O)O; Thr(3ξ) = CC(O)[C@H](N)C(=O)O; hSer = N[C@@H](CCO)C(=O)O; Carboxymethyl = O=C(O)C*; NMeA = CN[C@@H](C)C(=O)O; Orn = NCCC[C@H](N)C(=O)O; Aun = NCCCCCCCCCCC(=O)O; Dab = NCC[C@H](N)C(=O)O; AEEA = NCCOCCOCC(=O)O
biological target: T1, PD-1/PD-L1 interaction (PE-labeled human PD-L1-Ig binding to Jurkat cell line over-expressing human PD-1) (Homo sapiens, UniProt Q15116); assay: Jurkat-PD-1 Cell Binding High-Content Screening Assay (CBA); settings: Jurkat-hPD-1 cells, PE-labeled PD-L1-Ig 20 nM final; read-out: Jurkat HPD1 PDL1 IC50
T1 construct: expressed in transfected cells; host or cells: Jurkat
Outline: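 In this imaging assay, cells in 10% FCS medium see compound for 2 h at 37 °C and then labeled ligand at 20 nM final for 1 h. Paraformaldehyde fixation, Hoechst 33342 staining and dPBS washes precede image capture.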

T1 sequence (Q15116 25-288): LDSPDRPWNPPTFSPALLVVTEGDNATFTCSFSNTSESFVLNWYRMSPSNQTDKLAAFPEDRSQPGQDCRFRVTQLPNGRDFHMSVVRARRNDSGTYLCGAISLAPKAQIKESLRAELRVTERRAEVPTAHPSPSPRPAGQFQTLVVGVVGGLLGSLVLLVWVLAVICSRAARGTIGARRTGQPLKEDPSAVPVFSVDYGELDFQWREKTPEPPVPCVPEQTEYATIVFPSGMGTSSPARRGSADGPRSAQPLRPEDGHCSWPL

Structure (SMILES)	IC50 [nM]
Cc1cccc(C[C@@H]2NC(=O)[C@H](CC(=O)O)NC(=O)[C@H](Cc3ccc(OCC(=O)O)cc3)NC(=O)[C@H](CCCNC(=N)N)NC(=O)CSC[C@@H](C(=O)N[C@@H](CCN)C(=O)NCCCCCCCCCCC(=O)O)NC(=O)[C@H](C(C)O)NC(=O)[C@H](C(C)C)NC(=O)[C@H](CC3CCCCC3)NC(=O)[C@H](CCN)NC(=O)[C@@H](CC(C)C)NC(=O)[C@H](C)N(C)C(=O)[C@H](CCCNC(N)=O)NC(=O)[C@H](Cc3ccc(-c4ccccc4)cc3)NC(=O)[C@H](C(C)C)NC2=O)c1 (stereo partly drawn) [Example 2211] ({CH2CO}-RY(Carboxymethyl)D[Phe(3-Me)]V[Bip][Cit][NMeA][dL][Dab][Cha]V[Thr(3ξ)]C[Dab][Aun]-OH; thioether N-14)	8.5
Cc1cccc(C[C@@H]2NC(=O)[C@H](CC(=O)O)NC(=O)[C@H](Cc3ccc(OCC(=O)O)cc3)NC(=O)[C@H](CCCNC(=N)N)NC(=O)CSC[C@@H](C(=O)N[C@@H](CCN)C(=O)NCCCCCCCCCCC(=O)O)NC(=O)[C@H](CCCCN)NC(=O)[C@H](C(C)C)NC(=O)[C@H](CC3CCCCC3)NC(=O)[C@H](CCN)NC(=O)[C@@H](CC(C)C)NC(=O)[C@H](C)N(C)C(=O)[C@H](CCCNC(N)=O)NC(=O)[C@H](Cc3ccc(-c4ccccc4)cc3)NC(=O)[C@H](C(C)C)NC2=O)c1 [Example 2212] ({CH2CO}-RY(Carboxymethyl)D[Phe(3-Me)]V[Bip][Cit][NMeA][dL][Dab][Cha]VKC[Dab][Aun]-OH; thioether N-14)	16.1
Cc1cccc(C[C@@H]2NC(=O)[C@H](CC(=O)O)NC(=O)[C@H](Cc3ccc(C(=O)O)cc3)NC(=O)[C@H](Cc3ccc(OCC(=O)O)cc3)NC(=O)CSC[C@@H](C(=O)NCCOCCOCC(=O)NCCCCCCCCCCC(=O)O)NC(=O)[C@H](CCCCO)NC(=O)[C@H](C(C)C)NC(=O)[C@H](CC3CCCCC3)NC(=O)[C@H](CCN)NC(=O)[C@@H](CC(C)C)NC(=O)[C@H](C)N(C)C(=O)[C@H](Cc3ccc(O)cc3)NC(=O)[C@H](Cc3ccc(-c4ccccc4)cc3)NC(=O)[C@H](C(C)C)NC2=O)c1 [Example 2213] ({CH2CO}-Y(Carboxymethyl)[Phe(4-COOH)]D[Phe(3-Me)]V[Bip]Y[NMeA][dL][Dab][Cha]V[X14]C[AEEA][Aun]-OH; thioether N-14)	14.4
Cc1cccc(C[C@@H]2NC(=O)[C@H](CC(=O)O)NC(=O)[C@H](Cc3ccc(C(=O)O)cc3)NC(=O)[C@H](Cc3ccc(OCC(=O)O)cc3)NC(=O)CSC[C@@H](C(=O)N[C@@H](CCN)C(=O)NCCCCCCCCCCC(=O)O)NC(=O)[C@H](CCCC(=O)O)NC(=O)[C@H](C(C)C)NC(=O)[C@H](CC3CCCCC3)NC(=O)[C@H](CCN)NC(=O)[C@@H](CC(C)C)NC(=O)[C@H](C)N(C)C(=O)[C@H](C(C)C)NC(=O)[C@H](Cc3ccc(-c4ccccc4)cc3)NC(=O)[C@H](C(C)C)NC2=O)c1 [Example 2214] ({CH2CO}-Y(Carboxymethyl)[Phe(4-COOH)]D[Phe(3-Me)]V[Bip]V[NMeA][dL][Dab][Cha]V[Aad]C[Dab][Aun]-OH; thioether N-14)	16.3
Cc1cccc(C[C@@H]2NC(=O)[C@H](CC(=O)O)NC(=O)[C@H](Cc3c[nH]cn3)NC(=O)[C@H](Cc3ccc(OCC(=O)O)cc3)NC(=O)CSC[C@@H](C(=O)N[C@@H](CCN)C(=O)NCCCCCCCCCCC(=O)O)NC(=O)[C@H](CCCC(=O)O)NC(=O)[C@H](C(C)C)NC(=O)[C@H](CC3CCCCC3)NC(=O)[C@H](CCN)NC(=O)[C@@H](CC(C)C)NC(=O)[C@H](C)N(C)C(=O)[C@H](C(C)C)NC(=O)[C@H](Cc3ccc(-c4ccccc4)cc3)NC(=O)[C@H](C(C)C)NC2=O)c1 [Example 2215] ({CH2CO}-Y(Carboxymethyl)HD[Phe(3-Me)]V[Bip]V[NMeA][dL][Dab][Cha]V[Aad]C[Dab][Aun]-OH; thioether N-14)	9.2
Cc1cccc(C[C@@H]2NC(=O)[C@H](CC(=O)O)NC(=O)[C@H](Cc3ccc(C(=O)O)cc3)NC(=O)[C@H](Cc3ccc(OCC(=O)O)cc3)NC(=O)CSC[C@@H](C(=O)NCCCCCCCCCCC(=O)O)NC(=O)[C@H](CCCNC(N)=O)NC(=O)[C@H](C(C)C)NC(=O)[C@H](CC3CCCCC3)NC(=O)[C@H](CCN)NC(=O)[C@@H](CC(C)C)NC(=O)[C@H](C)N(C)C(=O)[C@H](C(C)C)NC(=O)[C@H](Cc3ccc(-c4ccccc4)cc3)NC(=O)[C@H](C(C)C)NC2=O)c1 [Example 2216] ({CH2CO}-Y(Carboxymethyl)[Phe(4-COOH)]D[Phe(3-Me)]V[Bip]V[NMeA][dL][Dab][Cha]V[Cit]C[Aun]-OH; thioether N-14)	13.9
Cc1cccc(C[C@@H]2NC(=O)[C@H](CC(=O)O)NC(=O)[C@H](Cc3ccc(C(=O)O)cc3)NC(=O)[C@H](Cc3ccc(OCC(=O)O)cc3)NC(=O)CSC[C@@H](C(=O)NCCOCCOCC(=O)NCCCCCCCCCCC(=O)O)NC(=O)[C@H](CCO)NC(=O)[C@H](C(C)C)NC(=O)[C@H](CC3CCCCC3)NC(=O)[C@H](CCN)NC(=O)[C@@H](CC(C)C)NC(=O)[C@H](C)N(C)C(=O)[C@H](C(C)C)NC(=O)[C@H](Cc3ccc(-c4ccccc4)cc3)NC(=O)[C@H](C(C)C)NC2=O)c1 [Example 2217] ({CH2CO}-Y(Carboxymethyl)[Phe(4-COOH)]D[Phe(3-Me)]V[Bip]V[NMeA][dL][Dab][Cha]V[hSer]C[AEEA][Aun]-OH; thioether N-14)	11.5
Cc1cccc(C[C@@H]2NC(=O)[C@H](CC(=O)O)NC(=O)[C@H](Cc3ccc(OCC(=O)O)cc3)NC(=O)[C@H](Cc3ccncc3)NC(=O)CSC[C@@H](C(=O)NCCOCCOCC(=O)NCCCCCCCCCCC(=O)O)NC(=O)[C@H](CCCN)NC(=O)[C@H](C(C)C)NC(=O)[C@H](CC3CCCCC3)NC(=O)[C@H](CCN)NC(=O)[C@@H](CC(C)C)NC(=O)[C@H](C)N(C)C(=O)[C@H](Cc3ccc(O)cc3)NC(=O)[C@H](Cc3ccc(-c4ccccc4)cc3)NC(=O)[C@H](CC(C)C)NC2=O)c1 [Example 2218] ({CH2CO}-[4Pal]Y(Carboxymethyl)D[Phe(3-Me)]L[Bip]Y[NMeA][dL][Dab][Cha]V[Orn]C[AEEA][Aun]-OH; thioether N-14)	33.3
Cc1cccc(C[C@@H]2NC(=O)[C@H](CC(=O)O)NC(=O)[C@H](Cc3ccc(OCC(=O)O)cc3)NC(=O)[C@H](C(C)O)NC(=O)CSC[C@@H](C(=O)N(C)CCOCCOCC(=O)NCCCCCCCCCCC(=O)O)NC(=O)[C@H](CCCN)NC(=O)[C@H](C(C)C)NC(=O)[C@H](CC3CCCCC3)NC(=O)[C@H](CCN)NC(=O)[C@@H](CC(C)C)NC(=O)[C@H](C)N(C)C(=O)[C@H](C(C)C)NC(=O)[C@H](Cc3ccc(-c4ccccc4)cc3)NC(=O)[C@H](C(C)C)NC2=O)c1 (stereo partly drawn) [Example 2219] ({CH2CO}-[Thr(3ξ)]Y(Carboxymethyl)D[Phe(3-Me)]V[Bip]V[NMeA][dL][Dab][Cha]V[Orn]C[NMeAEEA][Aun]-OH; thioether N-14)	6.2
CC(=O)NCCCC[C@@H]1NC(=O)[C@H](C(C)C)NC(=O)[C@H](CC2CCCCC2)NC(=O)[C@H](CCN)NC(=O)[C@@H](CC(C)C)NC(=O)[C@H](C)N(C)C(=O)[C@H](CCC(N)=O)NC(=O)[C@H](Cc2ccc(-c3ccccc3)cc2)NC(=O)[C@H](C(C)C)NC(=O)[C@H](Cc2cccc(C)c2)NC(=O)[C@H](CC(=O)O)NC(=O)[C@H](Cc2ccc(OCC(=O)O)cc2)NC(=O)[C@H](Cc2ccc(OCC(=O)O)cc2)NC(=O)CSC[C@@H](C(=O)N[C@@H](CCN)C(=O)NCCCCCCCCCCC(=O)O)NC1=O [Example 2220] ({CH2CO}-Y(Carboxymethyl)Y(Carboxymethyl)D[Phe(3-Me)]V[Bip]Q[NMeA][dL][Dab][Cha]VK(Ac)C[Dab][Aun]-OH; thioether N-14)	10.1
CC(=O)NCCCC[C@@H]1NC(=O)[C@H](C(C)C)NC(=O)[C@H](CC2CCCCC2)NC(=O)[C@H](CCN)NC(=O)[C@@H](CC(C)C)NC(=O)[C@H](C)N(C)C(=O)[C@H](CCO)NC(=O)[C@H](Cc2ccc(-c3ccccc3)cc2)NC(=O)[C@H](C(C)C)NC(=O)[C@H](Cc2cccc(C)c2)NC(=O)[C@H](CC(=O)O)NC(=O)[C@H](Cc2ccc(OCC(=O)O)cc2)NC(=O)[C@H](Cc2ccc(OCC(=O)O)cc2)NC(=O)CSC[C@@H](C(=O)N[C@@H](CCN)C(=O)NCCCCCCCCCCC(=O)O)NC1=O [Example 2221] ({CH2CO}-Y(Carboxymethyl)Y(Carboxymethyl)D[Phe(3-Me)]V[Bip][hSer][NMeA][dL][Dab][Cha]VK(Ac)C[Dab][Aun]-OH; thioether N-14)	11.6
CC(=O)NCCCC[C@@H]1NC(=O)[C@H](Cc2ccc(-c3ccccc3)cc2)NC(=O)[C@H](C(C)C)NC(=O)[C@H](Cc2cccc(C)c2)NC(=O)[C@H](CC(=O)O)NC(=O)[C@H](Cc2ccc(OCC(=O)O)cc2)NC(=O)[C@H](Cc2ccc(OCC(=O)O)cc2)NC(=O)CSC[C@@H](C(=O)NCCOCCOCC(=O)NCCCCCCCCCCC(=O)O)NC(=O)[C@H](CCO)NC(=O)[C@H](C(C)C)NC(=O)[C@H](CC2CCCCC2)NC(=O)[C@H](CCN)NC(=O)[C@@H](CC(C)C)NC(=O)[C@H](C)N(C)C1=O [Example 2222] ({CH2CO}-Y(Carboxymethyl)Y(Carboxymethyl)D[Phe(3-Me)]V[Bip]K(Ac)[NMeA][dL][Dab][Cha]V[hSer]C[AEEA][Aun]-OH; thioether N-14)	10.6
CC(=O)NCCCC[C@@H]1NC(=O)[C@H](Cc2ccc(-c3ccccc3)cc2)NC(=O)[C@H](CC(C)C)NC(=O)[C@H](Cc2cccc(C)c2)NC(=O)[C@H](CC(=O)O)NC(=O)[C@H](Cc2ccc(OCC(=O)O)cc2)NC(=O)[C@H](Cc2ccc(OCC(=O)O)cc2)NC(=O)CSC[C@@H](C(=O)NCCOCCOCC(=O)NCCCCCCCCCCC(=O)O)NC(=O)[C@H](CCCCN)NC(=O)[C@H](C(C)C)NC(=O)[C@H](CC2CCCCC2)NC(=O)[C@H](CCN)NC(=O)[C@@H](CC(C)C)NC(=O)[C@H](C)N(C)C1=O [Example 2223] ({CH2CO}-Y(Carboxymethyl)Y(Carboxymethyl)D[Phe(3-Me)]L[Bip]K(Ac)[NMeA][dL][Dab][Cha]VKC[AEEA][Aun]-OH; thioether N-14)	10.9
